Reference: patent US10525220B2, “Droplet delivery device for delivery of fluids to the pulmonary system and methods of use” (PNEUMA RESPIRATORY, INC., priority 2016, dated 2020)
Where “and” joins values, the source holds several entries; their conditions need not be identical. Equal values may be shown once.

Experiments:
Format in all cases: physicochemical
[1] = Size exclusion chromatography stability study after aerosol generation with test device
Source text: Alternately, to determine the stability of active agent after droplet generation, the generated stream of droplets including the active agent may be collected and […] may be employed to monitor for any changes in large molecule aggregation and protein fragment content. Soluble protein aggregates and protein fragment content may be calculated by comparing respective peak area under the SEC-HPLC curve of dispensed protein solutions with controls (solutions remaining in the device reservoir). Drug solutions for testing include Enbrel, (ENBREL® single-use prefilled syringes in 25 mg (0.51 mL of a 50 mg/mL solution of etanercept), and insulin, (Humalog, 200 units/ml, 3 ml […] is performed with a YarraTM 3 um SEC-2000 LC column 300×7.8 mm, SecurityGuard cartridge kit and SecurityGuard cartridges GFC-2000, 4×3 mm ID. Fifty microliters of Enbrel from the syringe (ENBREL® single-use prefilled syringes in 25 mg/0.51 mL of a 50 mg/mL solution of etanercept) is diluted (4:1) (4 parts, 200 mcl of the mobile phase buffer solution to 1 part, 50 mcl Enbrel from syringe). Fifty microliter of the diluted Enbrel is injected and separation was performed at a flow rate of 1.0 ml/min. The mobile phase buffer system included a PHOS. BUFF. SALINE. […] UV detection is performed at 280 nm. […] Aerosol collection and SEC is performed in a similar fashion as for the Enbrel analysis and aerosol collection. […] Fifty microliters of the collected aerosol spray is injected onto the SEC column for analysis, while 50 mcl of the […] insulin solution is injected onto the SEC column for control samples.

[2] = Gravimetric analysis of delivered dose per actuation; conditions: for solution mass per dose (actuation), average of five doses: ampule weighed before and after dosing
Protocol: Gravimetric analysis was performed by weighing the Enbrel solution filled ampule before and after dosing. The average of five doses (actuations) were analyzed with an average of 4.25 mg+/−0.15 mg. The total delivered dose of Enbrel per actuation is therefore […] per actuation.
Gravimetric analysis was performed by weighing the Insulin solution filled ampule before and after dosing. The average of five doses (actuations) were analyzed with an average of 5.01 mg+/−0.53 mg. The total delivered dose of Insulin per actuation is therefore 34.8 mcg per actuation.

[3] = Anderson Cascade Impactor testing of Albuterol sulfate aerosol from droplet delivery device (Example B)
Protocol: The study was designed to evaluate device performance of a single Pneuma™ inhaler. A series of three (3) individual tests were conducted with a new disposable drug cartridge for each test. The testing platform utilizes an eight-stage nonviable Anderson Cascade Impactor (Thermo Fisher Scientific; Waltham, Mass.) equipped with a calibrated AALBORG model GFM47 mass flow meter (AALBORG Instruments and Controls; Orangeburg, N.Y.) for flow rate measurement.
At the conclusion of each test, the mouthpiece was rinsed with mobile phase and collected for HPLC analysis to determine the mass fraction of non-respirable aerosolized drug captured in the mouthpiece via inertial filtering. Following each test, impactor stage samples were extracted and recovered in solvent and analyzed for the active pharmaceutical ingredient (API) using a Dionex Ultimate 3000 nano-HPLC with UV detection (Thermo Scientific, Sunnyvale, Calif.).
The cascade impactor testing procedure involved fitting the mouthpiece into the Impactor USP throat with a mouthpiece connection seal. The vacuum pump supplying sample air flow to the cascade impactor was turned on and the pump control valves adjusted to supply 28.3 L/min total flow through the impactor and inhaler body during aerosol tests.
The device was connected to the impactor USB throat, turned on, and actuated ten (10) times for each test. At the conclusion of the test period, the device, impactor, and dilution air sources were turned off. The i mouthpiece was rinsed in order to extract drug, and all stages of the cascade impactor were rinsed with a quantity of appropriate solvent (HPLC mobile phase). Extracted samples were placed in labeled and sterile HPLC vials, capped, and analyzed for drug content via HPLC with UV detection. The mouthpiece was extracted of residual drug and analyzed for drug content via HPLC to measure mouthpiece drug deposition in relation to the total collected on the impactor stages.
All system flow rates and impactor sample flows were monitored throughout each test period. Following each test, the impactor slides were placed in labeled sterile Petri dishes, and impactor stages were extracted of drug using 2 ml of mobile phase applied with a calibrated micropipette. All extracted samples from the mouthpiece and impactor were placed in labeled sterile amber HPLC sample vials, and stored refrigerated at approximately 2° C. until HPLC analysis.
Impactor collection stages for all tests were rinsed with DI water and ethanol, and air dried prior to each inhaler test trial to avoid contamination. A new inhaler drug cartridge was used for each of the three individual tests.
All drug content analysis was performed using a Dionex Ultimate 3000 nano-HPLC equipped with a Dionex UVD-3000 multi-wavelength UVNIS Detector using a micro flow cell (75 um×10 mm path length, total analytical volume 44.2 nl). […] Total HPLC run time was 6 minutes per sample with approximately 5 minutes flush between each sample. Sample injection was performed with a 1 μl sample loop in full loop injection mode.
Buffer formulation contains reverseosmosis filtered deionized water with 1.13 gr of sodium 1-hexanesulfonate (Alfa Aesar) in 1200 ml of water, with 2 ml glacial acetic acid (Acros Organics) added. The mobile phase solution was mixed and filtered through a 0.45 um filter membrane. The final mobile phase is a 60:40 dilution of Buffer:MEOH.
Mean and standard deviation were calculated for all triplicate trial sets for each component of: inhaler drug fill, total delivered dose, course particle dose, course particle fraction, respirable particle dose, respirable particle fraction, fine particle dose, fine particle fraction, aerosol MMAD and GSD. The number of trials provided for 95% confidence levels for all data sets.

[4] = Gel electrophoresis stability of active agent after droplet generation
Source text: To determine the stability of active agent after droplet generation, the generated stream of droplets including the active agent is collected and the molecular weight of the active agent is verified using gel electrophoresis.

[5] = Albuterol 0.5%, 28.3 lpm, 10 actuations
[6] = Albuterol 0.5%, 28.3 lpm, N = 30
[7] = Albuterol 0.5%, Anderson Cascade, 28.3 lpm, 10 actuations
[8] = Pre-separator, cut diam. 10 μm, Albuterol 0.5%, 28.3 lpm, 10 actuations
[9] = Enbrel aerosolized, average of S1 and S2

Insulin: insulin, Humalog, 200 units/ml, 3 ml kwikpens
Peak Area %, Peak 1 ([1]; Insulin 200 U/ml, aerosolized): 27.881% and 28.721%
Peak Area %, Peak 2 ([1]; Insulin 200 U/ml, aerosolized): 69.780% and 67.807%
Peak Area %, Peak 3 ([1]; Insulin 200 U/ml, aerosolized): 2.184% and 2.797%
Peak Area %, Peak 2 ([1]; Insulin 200 U/ml, control): 69.630%
Peak Area %, Peak 3 ([1]; Insulin 200 U/ml, control): 0%
Peak 3, Avg. ([1]; Insulin aerosolized, average of S1 and S2): 2.4905
Peak Area %, Peak 1 ([1]; Insulin from Kwikpen 200 U/ml, control): 29.926%
ejected dose forming a fragment which elutes at ~25 minutes ([1]; Insulin, test device): 2.5%
ejected dose structurally unchanged ([1]; Insulin, test device): 97.5%
total delivered dose per actuation [2]: 34.8 mcg per actuation
solution mass per dose (actuation), average of five doses [2]: 5.01 mg

Albuterol sulfate
Coarse Particles (>4.7 um) [3, 5]: 203.7 µg
Coarse Particules Fraction (>4.7 um) [3, 5]: 22.7%
Fine Particles (<0.4 um) [3, 5]: 31.0 µg
Fine Particule Fraction (<0.4 um) [3, 5]: 3.5%
Mouthpiece Losses [3, 5]: 12.2%
Respirable Dose (0.4-4.7 um) [3, 5]: 621.9 µg
Respirable Fraction (0.4-4.7 um) [3, 5]: 69.3%
Geometric StdDev (GSD) [3, 6]: 1.96
MMAD [3, 6]: 1.93 um
Mouthpiece Losses [3, 7]: 109.4 µg
droplets of an average diameter of less than about 5 μm [3, 7]: over 75%
droplets with an average diameter of less than about 4 μm [3, 7]: over 70%
Cum. % < ([3]; FILTER stage): 0.00%
Cum. % > ([3]; FILTER stage): 100.00%
Cum. % < [3, 8]: 100.00%
Cum. % > [3, 8]: 0.00%
Cum. % < ([3]; stage 0, cut diam. 9 μm): 88.95%
Cum. % < ([3]; stage 1, cut diam. 5.8 μm): 76.22%
Cum. % > ([3]; stage 1, cut diam. 5.8 μm): 23.78%
Cum. % < ([3]; stage 2, cut diam. 4.7 μm): 71.05%
Cum. % > ([3]; stage 2, cut diam. 4.7 μm): 28.95%
Cum. % < ([3]; stage 3, cut diam. 3.3 μm): 64.29%
Cum. % > ([3]; stage 3, cut diam. 3.3 μm): 35.71%
Cum. % < ([3]; stage 4, cut diam. 2.1 μm): 52.89%
Cum. % > ([3]; stage 4, cut diam. 2.1 μm): 47.11%
Cum. % < ([3]; stage 5, cut diam. 1.1 μm): 21.05%
Cum. % > ([3]; stage 5, cut diam. 1.1 μm): 78.95%
Cum. % < ([3]; stage 6, cut diam. 0.7 μm): 8.47%
Cum. % > ([3]; stage 6, cut diam. 0.7 μm): 91.53%
Cum. % > ([3]; stage 7, cut diam. 0.4 μm): 96.38%

etanercept [Enbrel]
Peak Area %, Peak 2 ([1]; Enbrel 10 mg/ml, aerosolized): 90.789% and 92.112%
Peak Area %, Peak 3 ([1]; Enbrel 10 mg/ml, aerosolized): 0.424% and 0.361%
Peak Area %, Peak 4 ([1]; Enbrel 10 mg/ml, aerosolized): 0.357% and 0.352%
Peak Area %, Peak 5 ([1]; Enbrel 10 mg/ml, aerosolized): 5.130% and 3.428% and 5.123%
Peak Area %, Peak 1 ([1]; Enbrel 10 mg/ml, aerosolized with test device): 2.796% and 3.476%
Peak Area %, Peak 2 ([1]; Enbrel 10 mg/ml, control): 96.676% and 95.909%
Peak Area %, Peak 3 ([1]; Enbrel 10 mg/ml, control): 0.373% and 0.351%
Peak Area %, Peak 4 ([1]; Enbrel 10 mg/ml, control): 0%
Peak Area %, Peak 5 ([1]; Enbrel 10 mg/ml, control): 0%
Peak 4, Avg. [1, 9]: 0.3545
Peak 5, Avg. [1, 9]: 4.2755
Peak Area %, Peak 1 ([1]; Enbrel diluted 4:1 (10 mg/ml), control): 2.428% and 3.041%
dose forming molecular fragments with elution times of 13 and 25 minutes ([1]; Enbrel, test device): 4.6%
structurally unchanged after delivering an aerosol dose ([1]; Enbrel, test device): 95.4%
total delivered dose per actuation [2]: 42.5 mcg per actuation
solution mass per dose (actuation), average of five doses [2]: 4.25 mg
change in electrophoretic mobility (molecular weight) of post-aerosol active agent vs control [4]: negligible change

adalimumab
change in electrophoretic mobility (molecular weight) of post-aerosol active agent vs control [4]: negligible change
